Source: patent publication US10112899B2 (ViiV HEALTHCARE UK LIMITED, priority 2014, dated 2018)
pIC50: −log10 of the molar value.

Test system: HIV in the HTLV-1 transformed cell line MT-4
Assay: organism not typed
Type: cell-based
Conditions: MT-4 cells, luciferase/cell titer glo readout after 96 hours, 10 point dose response

Row | SMILES | pIC50 (MT4, 96 h) | pIC50
1 | Cc1c(-c2c(C)c3c(c(C)c2[C@H](OC(C)(C)C)C(=O)O)CN(C(=O)Nc2cccc(F)c2)C3)cc(F)c2c1CCCO2 (atropisomer, axis not shown; (M)) [Example 210, (S)-2-(tert-butoxy)-2-((M)-6-(8-fluoro-5-methylchroman-6-yl)-2-((3-fluorophenyl)carbamoyl)-4,7-dimethylisoindolin-5-yl)acetic acid] | 7.85 | 
2 | Cc1c(-c2c(C)c3c(c(C)c2[C@H](OC(C)(C)C)C(=O)O)CN(C(=O)N2CCC(C)(C)CC2)C3)cc(F)c2c1CCCO2 (atropisomer, axis not shown; (M)) [Example 211, (S)-2-(tert-butoxy)-2-((M)-2-(4,4-dimethylpiperidine-1-carbonyl)-6-(8-fluoro-5-methylchroman-6-yl)-4,7-dimethylisoindolin-5-yl)acetic acid] | 8.30 | 
3 | Cc1c(-c2c(C)c3c(c(C)c2[C@H](OC(C)(C)C)C(=O)O)CN(C(=O)N2CCC[C@@H]2C)C3)cc(F)c2c1CCCO2 (atropisomer, axis not shown; (M)) [Example 212, (S)-2-(tert-butoxy)-2-((M)-6-(8-fluoro-5-methylchroman-6-yl)-4,7-dimethyl-2-((S)-2-methylpyrrolidine-1-carbonyl)isoindolin-5-yl)acetic acid] | 8.70 | 
4 | Cc1c(-c2c(C)c3c(c(C)c2[C@H](OC(C)(C)C)C(=O)O)CN(C(=O)N2CCC(F)(F)CC2)C3)cc(F)c2c1CCCO2 (atropisomer, axis not shown; (M)) [Example 213, (S)-2-(tert-butoxy)-2-((M)-2-(4,4-difluoropiperidine-1-carbonyl)-6-(8-fluoro-5-methylchroman-6-yl)-4,7-dimethylisoindolin-5-yl)acetic acid] | 8.52 | 
5 | Cc1c(-c2c(C)c3c(c(C)c2[C@H](OC(C)(C)C)C(=O)O)CN(C(=O)N2CCC(C)(C)C2)C3)cc(F)c2c1CCCO2 (atropisomer, axis not shown; (M)) [Example 214, (S)-2-(tert-butoxy)-2-((M)-2-(3,3-dimethylpyrrolidine-1-carbonyl)-6-(8-fluoro-5-methylchroman-6-yl)-4,7-dimethylisoindolin-5-yl)acetic acid] | 8.52 | 
6 | Cc1c(-c2c(C)c3c(c(C)c2[C@H](OC(C)(C)C)C(=O)O)CN(C(=O)C(=O)N2CCCCC2)C3)cc(F)c2c1CCCO2 (atropisomer, axis not shown; (M)) [Example 215] | 8.00 | 
7 | Cc1c(-c2c(C)c3c(c(C)c2[C@H](OC(C)(C)C)C(=O)O)CN(Cc2cccc4c2OCO4)C3)cc(F)c2c1CCCO2 (atropisomer, axis not shown; (M)) [Example 216, (S)-2-((M)-2-(benzo[d][1,3]dioxol-4-ylmethyl)-6-(8-fluoro-5-methylchroman-6-yl)-4,7-dimethylisoindolin-5-yl)-2-(tert-butoxy)acetic acid] | 8.40 | 
8 | Cc1c(-c2c(C)c3c(c(C)c2[C@H](OC(C)(C)C)C(=O)O)CN(C(=O)Oc2ccccc2)C3)cc(F)c2c1CCCO2 (atropisomer, axis not shown; (M)) [Example 217, (S)-2-(tert-butoxy)-2-((M)-6-(8-fluoro-5-methylchroman-6-yl)-4,7-dimethyl-2-(phenoxycarbonyl)isoindolin-5-yl)acetic acid] | 7.92 | 
9 | Cc1c(-c2c(C)c3c(c(C)c2[C@H](OC(C)(C)C)C(=O)O)CN(S(=O)(=O)c2cccc(F)c2)C3)cc(F)c2c1CCCO2 (atropisomer, axis not shown; (M)) [Example 218, (S)-2-(tert-butoxy)-2-((M)-6-(8-fluoro-5-methylchroman-6-yl)-2-((3-fluorophenyl)sulfonyl)-4,7-dimethylisoindolin-5-yl)acetic acid] | 7.96 | 
10 | Cc1c(-c2c(C)c3c(c(C)c2[C@H](OC(C)(C)C)C(=O)O)CN(C(=O)c2cc(F)ccc2F)C3)cc(F)c2c1CCCO2 (atropisomer, axis not shown; (M)) [Example 285, (S)-2-(tert-butoxy)-2-((M)-2-(2,5-difluorobenzoyl)-6-(8-fluoro-5-methylchroman-6-yl)-4,7-dimethylisoindolin-5-yl)acetic acid] | 8.70 | 
11 | COc1ccc(C(=O)N2Cc3c(C)c(-c4cc(F)c5c(c4C)CCCO5)c([C@H](OC(C)(C)C)C(=O)O)c(C)c3C2)c(C)c1 (atropisomer, axis not shown; (M)) [Example 286, (S)-2-(tert-butoxy)-2-((M)-6-(8-fluoro-5-methylchroman-6-yl)-2-(4-methoxy-2-methylbenzoyl)-4,7-dimethylisoindolin-5-yl)acetic acid] | 7.96 | 
12 | Cc1c(-c2c(C)c3c(c(C)c2[C@H](OC(C)(C)C)C(=O)O)CN(C(=O)c2cccc(F)c2)C3)cc(F)c2c1NCCO2 (atropisomer, axis not shown; (M)) [Example 301, (S)-2-(tert-butoxy)-2-(6-((M)-8-fluoro-5-methyl-3,4-dihydro-2H-benzo[b][1,4]oxazin-6-yl)-2-(3-fluorobenzoyl)-4,7-dimethylisoindolin-5-yl)acetic acid] | 8.30 | 
13 | Cc1c(-c2c(C)c3c(c(C)c2[C@H](OC(C)(C)C)C(=O)O)CN(C(=O)N2CCC(F)(F)C2)C3)ccc2c1NCCO2 (atropisomer, axis not shown; (M)) [Example 312, (S)-2-(tert-butoxy)-2-((M)-2-(3,3-difluoropyrrolidine-1-carbonyl)-4,7-dimethyl-6-(5-methyl-3,4-dihydro-2H-benzo[b][1,4]oxazin-6-yl)isoindolin-5-yl)acetic acid] | 8.22 | 
14 | Cc1ccc(-c2c(C)c3c(c(C)c2C(OC(C)(C)C)C(=O)O)CN(Cc2ccc(F)cc2)C3)cc1 (centres unmarked) [Example 1, 2-(tert-Butoxy)-2-(2-(4-fluorobenzyl)-4,7-dimethyl-6-(p-tolyl)isoindolin-5-yl)acetic acid] | 7.46 | 
15 | Cc1ccc(-c2c(C)c3c(c(C)c2[C@H](OC(C)(C)C)C(=O)O)CN(Cc2ccc(F)cc2)C3)cc1 [Example 2, (S)-2-(tert-Butoxy)-2-(2-(4-fluorobenzyl)-4,7-dimethyl-6-(p-tolyl)isoindolin-5-yl)acetic acid] | 7.44 | 
16 | Cc1ccc(-c2c(C)c3c(c(C)c2[C@H](OC(C)(C)C)C(=O)O)CN(Cc2cccc(F)c2F)C3)cc1 [Example 3, (S)-2-(tert-butoxy)-2-(2-(2,3-difluorobenzyl)-4,7-dimethyl-6-(p-tolyl)isoindolin-5-yl)acetic acid] | 7.40 | 
17 | Cc1ccc(-c2c(C)c3c(c(C)c2[C@H](OC(C)(C)C)C(=O)O)CN(C(=O)NC2CCCCC2)C3)cc1 [Example 4, (S)-2-(tert-Butoxy)-2-(2-(cyclohexylcarbamoyl)-4,7-dimethyl-6-(p-tolyl)isoindolin-5-yl)acetic acid] | 7.48 | 
18 | Cc1ccc(-c2c(C)c3c(c(C)c2C(OC(C)(C)C)C(=O)O)CN(S(=O)(=O)c2cccc4ccccc24)C3)cc1 (centres unmarked) [Example 5, 2-(tert-Butoxy)-2-(4,7-dimethyl-2-(naphthalen-1-ylsulfonyl)-6-(p-tolyl)isoindolin-5-yl)acetic acid] |  | 7.38
19 | Cc1ccc(-c2c(C)c3c(c(C)c2[C@H](OC(C)(C)C)C(=O)O)CN(C(=O)N2CCCCC2)C3)cc1 [Example 7, (S)-2-(tert-butoxy)-2-(4,7-dimethyl-2-(piperidine-1-carbonyl)-6-(p-tolyl)isoindolin-5-yl)acetic acid] | 8.40 | 
20 | Cc1ccc(-c2c(C)c3c(c(C)c2C(OC(C)(C)C)C(=O)O)CN(Cc2ccccc2)C3)cc1 (centres unmarked) [Example 9, 2-(2-Benzyl-4,7-dimethyl-6-(p-tolyl)isoindolin-5-yl)-2-(tert-butoxy)acetic acid] | 7.01 | 
21 | Cc1ccc(-c2c(C)c3c(c(C)c2C(OC(C)(C)C)C(=O)O)CN(CC2CCCCC2)C3)cc1 (centres unmarked) [Example 10, 2-(tert-butoxy)-2-(2-(cyclohexylmethyl)-4,7-dimethyl-6-(p-tolyl)isoindolin-5-yl)acetic acid] | 7.15 | 
22 | Cc1ccc(-c2c(C)c3c(c(C)c2[C@H](OC(C)(C)C)C(=O)O)CN(Cc2ccncc2)C3)cc1 [Example 11, (S)-2-(tert-butoxy)-2-(4,7-dimethyl-2-(pyridin-4-ylmethyl)-6-(p-tolyl)isoindolin-5-yl)acetic acid] | 6.76 | 
23 | Cc1ccc(-c2c(C)c3c(c(C)c2[C@H](OC(C)(C)C)C(=O)O)CN(CC2CCOCC2)C3)cc1 [Example 12, (S)-2-(tert-butoxy)-2-(4,7-dimethyl-2-((tetrahydro-2H-pyran-4-yl)methyl)-6-(p-tolyl)isoindolin-5-yl)acetic acid] | 6.09 | 
24 | Cc1ccc(-c2c(C)c3c(c(C)c2[C@H](OC(C)(C)C)C(=O)O)CN(Cc2cccc4ccccc24)C3)cc1 [Example 13, (S)-2-(tert-Butoxy)-2-(4,7-dimethyl-2-(naphthalen-1-ylmethyl)-6-(p-tolyl)isoindolin-5-yl)acetic acid] | 7.36 | 
25 | Cc1ccc(-c2c(C)c3c(c(C)c2[C@H](OC(C)(C)C)C(=O)O)CN(C2CCC(C)(C)CC2)C3)cc1 [Example 14, (S)-2-(tert-Butoxy)-2-(2-(4,4-dimethylcyclohexyl)-4,7-dimethyl-6-(p-tolyl)isoindolin-5-yl)acetic acid] | 6.93 | 
26 | Cc1ccc(-c2c(C)c3c(c(C)c2C(OC(C)(C)C)C(=O)O)CN(S(C)(=O)=O)C3)cc1 (centres unmarked) [Example 15, 2-(tert-Butoxy)-2-(4,7-dimethyl-2-(methylsulfonyl)-6-(p-tolyl)isoindolin-5-yl)acetic acid] | 5.67 | 
27 | Cc1ccc(-c2c(C)c3c(c(C)c2C(OC(C)(C)C)C(=O)O)CN(S(=O)(=O)c2cccc4ccccc24)C3)cc1 (centres unmarked) [Example 16, 2-(tert-Butoxy)-2-(4,7-dimethyl-2-(naphthalen-1-ylsulfonyl)-6-(p-tolyl)isoindolin-5-yl)acetic acid] | 7.21 | 
28 | Cc1ccc(-c2c(C)c3c(c(C)c2C(OC(C)(C)C)C(=O)O)CN(C(=O)OCc2ccccc2)C3)cc1 (centres unmarked) [Example 17, 2-(2-((Benzyloxy)carbonyl)-4,7-dimethyl-6-(p-tolyl)isoindolin-5-yl)-2-(tert-butoxy)acetic acid] | 5.89 | 
29 | Cc1ccc(-c2c(C)c3c(c(C)c2[C@H](OC(C)(C)C)C(=O)O)CN(Cc2ccc(Cl)cc2)C3)cc1 [Example 18, (S)-2-(tert-butoxy)-2-(2-(4-chlorobenzyl)-4,7-dimethyl-6-(p-tolyl)isoindolin-5-yl)acetic acid] | 7.12 | 
